What was measured:
HSV-1 strain 17+ = assay: HSV encephalitis (HSE) survival model, corneal scarification; type: in vivo, mouse
Experimental: 129S6 Wild Type (WT), 129 FoxP3-GFP and IL-10 knock-out (KO) mice were bred. Male and female mice aged 6-10 weeks were infected with HSV-1 strain 17+ (HSV).
Prophylactic administration: six doses of 50 μg of PSA in sterile PBS was given as indicated-orally (PO), or intra-peritoneally (IP) over 3 weeks prior to HSV infection. Additionally, six doses of PSA were given IP on 9 days before HSV infection, 6 days before HSV infection, 3 days before HSV infection, day 0 of HSV infection (i.e., on the day of infection), 2 days post-infection, and 4 days post-infection. Mice received either PBS or the anti-viral drug acyclovir (ACV) from day 4 to 10 post-infection at 50 mg/kg. Therapeutic administration: PSA was administered on days 1, 3 and 6 post HSV infection by PO, IP or intravenous injection (IV) along with ACV beginning day 4-10 post-infection (pi).
The post-infection therapeutic regimen included PSA administered day 1, day 3, day 6 post-infection, with ACV administered from day 4 post-infection. At day 4 post-HSV infection, 1.25 mg of ACV was given per mouse by IP injections daily for 7 days. […] 129 WT or Rag mice were given PSA as indicated in FIG. 3A prior to the infection. ACV was given starting at day 4 post-infection (FIG. 3B).

HSV 17+ strain = assay: Flow cytometry of infiltrating leukocytes in brainstem (CNS inflammation) at day 6 pi
monocytes = assay: Monocyte degranulation (CD107a/b), blood and spleen of treated HSV infected mice; conditions: monocytes from blood and spleen, day 6 post-infection
T and B cells = assay: Immune cell analysis in uninfected WT mice during/after oral PSA treatment; type: in vivo, mouse
From the text: PSA increases IL-10 secreting T and B cells, as depicted in FIGS. 14A-14B.
Line plots showing CD39, CD73 and ICOS surface expression on CD4 and CD8 T cells isolated from mesenteric LN (MLN) of uninfected WT mice at indicated times during oral PSA treatment are depicted in FIGS. 16A-16B. FIG. 16A depicts CD4 T cells isolated from MLN of uninfected WT mice at indicated times during oral PSA treatment. FIG. 16B depicts CD8 T cells isolated from MLN of uninfected WT mice at indicated times during oral PSA treatment.

B cells = assay: Splenic B cell phenotype in treated HSV infected mice; type: in vivo, mouse; conditions: six oral doses of PSA, ACV from day 4 pi, spleen day 6 pi
[1] = test system: DCs, PMNs, CD45+ intra-epithelial lymphocytes; assay: Binding of fluorescent PSA to immune cells after oral gavage; type: in vivo, mouse; conditions: ileum of 129 WT or Rag mice
T cells = assay: Flow cytometry of T cells (phenotype, tetramer, intracellular cytokines) from treated HSV infected mice

Question: `Nc1nc2c(ncn2COCCO)c(=O)[nH]1` [ACV, acyclovir, reference compound] was tested. Which “prevention of lethal HSV encephalitis (HSE)” value (HSV-1 strain 17+; 129 WT mice, ACV given at day 4 post infection) did it give?
Answer: The value was “Cannot Prevent Lethal HSV Encephalitis (HSE)”.

Question: Which results are given for “Bacteroides fragilis (B. fragilis) capsular polysaccharide A (PSA)”?
Answer: survival of PSA treated B cell knockout mice or 129 Rag recipients of CD4 T cells, CD8 T cells or B cells (HSV-1 strain 17+; HSV 17+ strain, ACV from day 4 pi): B cells and T cells are essential for PSA mediated protection; protection against HSV infection (HSV-1 strain 17+; PSA IP therapeutically day 1, day 3, day 6 with ACV from day 4 post-infection): also did not protect against HSV infection; development of fatal HSE (HSV-1 strain 17+; mice pretreated with purified PSA prior to the HSV-1 infection, control PBS): prevented the development of fatal HSE; protection against HSV infection (HSV-1 strain 17+; six doses of 50 μg PSA prior to and during infection (or day -8 to +4 regimen, or day 1, 3, 6 pi), ACV 1.25 mg IP daily for 7 days from day 4 pi): did not protect against HSV infection; CNS inflammation (% CD45high infiltrates, Ly6Chigh CD11b+ inflammatory monocytes in brainstem) (HSV 17+ strain; 129 Rag mice, ACV from day 4 pi, brainstem day 6 pi): does not reduce CNS inflammation; CNS inflammation (infiltrating leukocytes in brainstem) (HSV 17+ strain; 129 WT mice, ACV from day 4 pi, brainstem day 6 pi): reducing CNS inflammation; CD8+ in brainstem that were CD103+ (HSV 17+ strain; 129 WT mice, brainstem): majority; CD8+ virus specific based on tetramer staining (HSV 17+ strain; 129 WT mice, brainstem): Greater than 70%; degranulation of monocytes following stimulation with HSV antigen (monocytes): limited degranulation; spontaneous degranulation of monocytes (monocytes): reduced spontaneous degranulation; IL-10 secreting T and B cells (T and B cells; MLN and spleen of uninfected WT mice after 6 doses of oral PSA): increases; accumulation of regulatory T cells (CD39, CD73, ICOS expression) (T and B cells; mesenteric lymph nodes of uninfected WT mice during oral PSA treatment): increases accumulation; splenic B cell phenotype (CD138) (B cells): the majority of B cells express a highly activated secretory plasmablast phenotype; IL-10 secretion from PSA stimulated CD45+ IEL [1]: induce IL-10 secretion by CD45+ IEL T cells in wild type but not Rag mice; CD4+ ICOS+ T cells in the spleen (T cells; 129 WT mice, spleen): 56%; CD4+ ICOS+ T cells that produced IL-10 (T cells; PMA+ ionomycin stimulation): Approximately 10%; phenotype of FoxP3 Tregs (CD25, CD103) (T cells; cervical lymph nodes, HSV infected WT mice, ACV from d4, day 6 pi): functional phenotype; CD62Llow CD4 T cells that were ICOS+ (T cells; oral PSA, blood and spleen, day 6 post-infection): 56%; virus specific spleen CD8 T cells that were CD103+ (T cells; six oral doses of PSA, ACV from day 4, spleen day 6 post-infection): > 70%; CD4s that secrete IL-10 in response to stimulation (T cells; six oral doses of PSA, ACV from day 4, spleen day 6 post-infection, PMA+ionomycin): about 11%; frequency of Tregs (T cells; spleen or BS): No change
